# In paper PMC5218480 (PLoS ONE, 2017):
# Test system: MV-4-11 cells
# Assay: Gene expression microarray analysis (Affymetrix PrimeView) and GSEA
# Assay type: cell-based, human
# Design: RFU PODN (11730768_x_at) / Fold change /veh PODN (11730768_x_at) / RFU LINC00158 (11744669_a_at) / Fold change /veh LINC00158 (11744669_a_at) / RFU DUSP10 (11751237_a_at) / Fold change /veh DUSP10 (11751237_a_at) / RFU ID3 (11757404_x_at) / Fold change /veh ID3 (11757404_x_at) / RFU PLEKHG5 (11737974_s_at) / Fold change /veh PLEKHG5 (11737974_s_at) / RFU LRRC4B (11730491_at) / Fold change /veh LRRC4B (11730491_at) / RFU GIMAP4 (11747438_a_at) / Fold change /veh GIMAP4 (11747438_a_at) / RFU KRT8 (11758183_x_at) / Fold change /veh KRT8 (11758183_x_at) / RFU CNN1 (11734310_a_at) / Fold change /veh CNN1 (11734310_a_at) / RFU VPS37D (11726825_at) / Fold change /veh VPS37D (11726825_at) / RFU C10orf10 (11716522_x_at) / Fold change /veh C10orf10 (11716522_x_at) / RFU KIR2DL2 /// KIR2DL4 /// KIR2DL5A /// KIR2DL5B /// KIR2DS1 /// KIR2DS2 /// KIR2DS3 /// KIR2DS4 /// KIR3DL3 /// KIR3DL3 /// KIR3DS1 (11738374_at) / Fold change /veh KIR2DL2 /// KIR2DL4 /// KIR2DL5A /// KIR2DL5B /// KIR2DS1 /// KIR2DS2 /// KIR2DS3 /// KIR2DS4 /// KIR3DL3 /// KIR3DL3 /// KIR3DS1 (11738374_at) / RFU C1QL1 (11718748_at) / Fold change /veh C1QL1 (11718748_at) / RFU TMPRSS4 (11747572_a_at) / Fold change /veh TMPRSS4 (11747572_a_at) / RFU HAMP (11756126_x_at) / Fold change /veh HAMP (11756126_x_at) / RFU RNFT2 (11725882_a_at) / Fold change /veh RNFT2 (11725882_a_at) / RFU NR4A2 (11747474_a_at) / Fold change /veh NR4A2 (11747474_a_at) / RFU ABCC12 (11746883_a_at) / Fold change /veh ABCC12 (11746883_a_at) / RFU TMEM136 (11760407_x_at) / Fold change /veh TMEM136 (11760407_x_at) / RFU CLDN22 /// WWC2 (11732394_at) / Fold change /veh CLDN22 /// WWC2 (11732394_at) / RFU HLA-DPB1 (11760878_x_at) / Fold change /veh HLA-DPB1 (11760878_x_at) / RFU SPINT1 (11716480_a_at) / Fold change /veh SPINT1 (11716480_a_at) / RFU GAP43 (11754022_s_at) / Fold change /veh GAP43 (11754022_s_at) / RFU A4GNT (11735810_at) / Fold change /veh A4GNT (11735810_at) / RFU PRB3 (11715151_x_at) / Fold change /veh PRB3 (11715151_x_at) / RFU TUBB4B (11761932_at) / Fold change /veh TUBB4B (11761932_at) / RFU CAPN14 (11732068_a_at) / Fold change /veh CAPN14 (11732068_a_at) / RFU TMCC2 (11721928_a_at) / Fold change /veh TMCC2 (11721928_a_at) / RFU IRGQ (11745062_a_at) / Fold change /veh IRGQ (11745062_a_at) / RFU FAM174B (11720279_a_at) / Fold change /veh FAM174B (11720279_a_at) / RFU TMPRSS4 (11748680_a_at) / Fold change /veh TMPRSS4 (11748680_a_at) / RFU FAM212B (11763350_a_at) / Fold change /veh FAM212B (11763350_a_at) / RFU PLEKHG5 (11743358_a_at) / Fold change /veh PLEKHG5 (11743358_a_at) / RFU ZSCAN30 (11745921_a_at) / Fold change /veh ZSCAN30 (11745921_a_at) / RFU CMKLR1 (11741424_a_at) / Fold change /veh CMKLR1 (11741424_a_at) / RFU LOC101060620 /// MAPK8IP1 (11723275_at) / Fold change /veh LOC101060620 /// MAPK8IP1 (11723275_at) / RFU SPTSSB (11747773_x_at) / Fold change /veh SPTSSB (11747773_x_at) / RFU PRSS12 (11739890_at) / Fold change /veh PRSS12 (11739890_at) / RFU BIN1 (11741810_x_at) / Fold change /veh BIN1 (11741810_x_at) / RFU WNT11 (11732464_a_at) / Fold change /veh WNT11 (11732464_a_at) / RFU C10orf10 (11716521_a_at) / Fold change /veh C10orf10 (11716521_a_at) / RFU C5orf56 (11738089_at) / Fold change /veh C5orf56 (11738089_at) / RFU CYB561 (11721691_x_at) / Fold change /veh CYB561 (11721691_x_at) / RFU ANKRD19P (11752326_a_at) / Fold change /veh ANKRD19P (11752326_a_at) / RFU OR2T12 /// OR2T33 /// OR2T8 (11738714_s_at) / Fold change /veh OR2T12 /// OR2T33 /// OR2T8 (11738714_s_at) / RFU VCAN (11748164_a_at) / Fold change /veh VCAN (11748164_a_at) / RFU JSRP1 (11732532_at) / Fold change /veh JSRP1 (11732532_at) / RFU KRTAP10-11 (11738290_x_at) / Fold change /veh KRTAP10-11 (11738290_x_at) / RFU MYO3A (11730013_a_at) / Fold change /veh MYO3A (11730013_a_at) / RFU EBF3 (11725865_a_at) / Fold change /veh EBF3 (11725865_a_at) / RFU CAMK2N1 (11719241_x_at) / Fold change /veh CAMK2N1 (11719241_x_at) / RFU C5orf56 (11738088_a_at) / Fold change /veh C5orf56 (11738088_a_at) / RFU OLFML3 (11715873_a_at) / Fold change /veh OLFML3 (11715873_a_at) / RFU LOC100653217 /// NTM (11731650_a_at) / Fold change /veh LOC100653217 /// NTM (11731650_a_at) / RFU MAPK11 (11762145_a_at) / Fold change /veh MAPK11 (11762145_a_at) / RFU FIZ1 (11724087_x_at) / Fold change /veh FIZ1 (11724087_x_at) / RFU OASL (11726364_x_at) / Fold change /veh OASL (11726364_x_at) / RFU SOX15 (11748057_x_at) / Fold change /veh SOX15 (11748057_x_at) / RFU CD79A (11719716_a_at) / Fold change /veh CD79A (11719716_a_at) / RFU HIST1H1D (11736915_at) / Fold change /veh HIST1H1D (11736915_at) / RFU CASKIN2 (11723855_a_at) / Fold change /veh CASKIN2 (11723855_a_at) / RFU LOC730098 (11760151_x_at) / Fold change /veh LOC730098 (11760151_x_at) / RFU OR4N2 (11742367_at) / Fold change /veh OR4N2 (11742367_at) / RFU PRRT2 (11749266_a_at) / Fold change /veh PRRT2 (11749266_a_at) / RFU SNX32 (11753110_a_at) / Fold change /veh SNX32 (11753110_a_at) / RFU CDHR5 (11726645_a_at) / Fold change /veh CDHR5 (11726645_a_at) / RFU RCAN1 (11760418_a_at) / Fold change /veh RCAN1 (11760418_a_at) / RFU FAM167A (11723789_a_at) / Fold change /veh FAM167A (11723789_a_at) / RFU FAM26E (11764081_at) / Fold change /veh FAM26E (11764081_at) / RFU ISYNA1 (11749810_s_at) / Fold change /veh ISYNA1 (11749810_s_at) / RFU ACY1 (11761880_at) / Fold change /veh ACY1 (11761880_at) / RFU 11764098_at / Fold change /veh 11764098_at / RFU SAMD14 (11745864_x_at) / Fold change /veh SAMD14 (11745864_x_at) / RFU NPB (11741838_a_at) / Fold change /veh NPB (11741838_a_at) / RFU TMPRSS6 (11731388_a_at) / Fold change /veh TMPRSS6 (11731388_a_at) / RFU KRTAP10-2 (11738614_at) / Fold change /veh KRTAP10-2 (11738614_at) / RFU ARHGAP8 /// PRR5-ARHGAP8 (11727945_x_at) / Fold change /veh ARHGAP8 /// PRR5-ARHGAP8 (11727945_x_at) / RFU KRTAP5-7 /// NADSYN1 (11734609_at) / Fold change /veh KRTAP5-7 /// NADSYN1 (11734609_at) / RFU RASL12 (11751679_a_at) / Fold change /veh RASL12 (11751679_a_at) / RFU CDKN2B (11736163_a_at) / Fold change /veh CDKN2B (11736163_a_at) / RFU PRF1 (11729649_at) / Fold change /veh PRF1 (11729649_at) / RFU, ZNF638 /// ZNF638-IT1 / Fold change vs veh, ZNF638 /// ZNF638-IT1 / RFU, PANK3 / Fold change vs veh, PANK3 / RFU, SH3YL1 / Fold change vs veh, SH3YL1 / RFU, ZEB2 / Fold change vs veh, ZEB2 / RFU, NRIP1 / Fold change vs veh, NRIP1 / RFU, PTTG1IP / Fold change vs veh, PTTG1IP / RFU, CAPN2 / Fold change vs veh, CAPN2 / RFU, MED14 / Fold change vs veh, MED14 / RFU, SNORA58 / Fold change vs veh, SNORA58 / RFU, C1orf63 / Fold change vs veh, C1orf63 / RFU, LRRFIP1 / Fold change vs veh, LRRFIP1 / RFU, NDUFAF7 / Fold change vs veh, NDUFAF7 / RFU, SLC12A2 / Fold change vs veh, SLC12A2 / RFU, IBTK / Fold change vs veh, IBTK / RFU, ESF1 / Fold change vs veh, ESF1 / Fold change vs veh, TMEM50B / RFU, TAOK1 / Fold change vs veh, TAOK1 / RFU, ACBD3 / Fold change vs veh, ACBD3 / RFU, TMA16 / Fold change vs veh, TMA16 / RFU, RWDD3 / Fold change vs veh, RWDD3 / RFU, BCAT1 / Fold change vs veh, BCAT1 / RFU, EDEM3 / Fold change vs veh, EDEM3 / RFU, TMEM33 / Fold change vs veh, TMEM33 / RFU, WDR75 / Fold change vs veh, WDR75 / RFU, AHCTF1 / Fold change vs veh, AHCTF1 / RFU, TFRC / Fold change vs veh, TFRC / RFU, ZDHHC17 / Fold change vs veh, ZDHHC17 / RFU, NOM1 / Fold change vs veh, NOM1 / RFU, ARL8B / Fold change vs veh, ARL8B / RFU, ZBTB11 / Fold change vs veh, ZBTB11 / RFU, TAMM41 / Fold change vs veh, TAMM41 / RFU, KIAA1704 /// LOC100996395 / Fold change vs veh, KIAA1704 /// LOC100996395 / RFU, ING1 / Fold change vs veh, ING1 / RFU, TRMT61B / Fold change vs veh, TRMT61B / RFU, FUBP3 / Fold change vs veh, FUBP3 / RFU, TP53 / Fold change vs veh, TP53 / RFU, TNKS2 / Fold change vs veh, TNKS2 / RFU, ZFP14 / Fold change vs veh, ZFP14 / RFU, ACTR2 / Fold change vs veh, ACTR2 / RFU, PPP3R1 / Fold change vs veh, PPP3R1 / RFU, PIK3R1 / Fold change vs veh, PIK3R1 / RFU, HNRNPA1 / Fold change vs veh, HNRNPA1 / RFU, RNF170 / Fold change vs veh, RNF170 / RFU, ZNF28 / Fold change vs veh, ZNF28 / RFU, RNGTT / Fold change vs veh, RNGTT / RFU, OGT / Fold change vs veh, OGT / RFU, BRD1 / Fold change vs veh, BRD1 / RFU, MARS / Fold change vs veh, MARS / RFU, ZNF655 / Fold change vs veh, ZNF655 / RFU, FAHD1 / Fold change vs veh, FAHD1 / RFU, BDP1 / Fold change vs veh, BDP1 / RFU, LRRCC1 / Fold change vs veh, LRRCC1 / RFU, ARID1A / Fold change vs veh, ARID1A / RFU, ZNF146 / Fold change vs veh, ZNF146 / RFU, ZNF330 / Fold change vs veh, ZNF330 / RFU, GPN3 / Fold change vs veh, GPN3 / RFU, C9orf123 / Fold change vs veh, C9orf123 / RFU, N4BP2L2 / Fold change vs veh, N4BP2L2 / RFU, ARFIP1 / Fold change vs veh, ARFIP1 / RFU, FAM179B / Fold change vs veh, FAM179B / RFU, BCL10 / Fold change vs veh, BCL10 / RFU, UHRF1BP1L / Fold change vs veh, UHRF1BP1L / RFU, BET1 / Fold change vs veh, BET1 / RFU, CNOT2 / Fold change vs veh, CNOT2 / RFU, ZNF268 / Fold change vs veh, ZNF268 / Fold change vs veh, ZNF507 / RFU, DGCR2 / Fold change vs veh, DGCR2 / RFU, WDSUB1 / Fold change vs veh, WDSUB1 / Fold change vs veh, HSP90B1 /// MIR3652 / RFU, ADSS / Fold change vs veh, ADSS / RFU, GK / Fold change vs veh, GK / RFU, ZNF148 / Fold change vs veh, ZNF148 / RFU, TAF9 / Fold change vs veh, TAF9 / RFU, SLC1A5 / Fold change vs veh, SLC1A5 / RFU, SLMO2 / Fold change vs veh, SLMO2 / RFU, ABCC4 / Fold change vs veh, ABCC4 / RFU, LOC101060439 /// RAP1B / Fold change vs veh, LOC101060439 /// RAP1B / RFU, RFX7 / Fold change vs veh, RFX7 / RFU, GTPBP10 / Fold change vs veh, GTPBP10 / RFU, CNEP1R1 / Fold change vs veh, CNEP1R1 / RFU, BIVM-ERCC5 /// ERCC5 / Fold change vs veh, BIVM-ERCC5 /// ERCC5 / RFU, ILF3 / Fold change vs veh, ILF3 / RFU 11762660_at / Fold change /veh 11762660_at / RFU VCAN (11757783_s_at) / Fold change /veh VCAN (11757783_s_at) / RFU DDX43 (11728927_at) / Fold change /veh DDX43 (11728927_at) / RFU KRT8 (11758188_x_at) / Fold change /veh KRT8 (11758188_x_at) / RFU NKD1 (11759106_at) / Fold change /veh NKD1 (11759106_at) / RFU SRD5A1 (11742802_a_at) / Fold change /veh SRD5A1 (11742802_a_at) / RFU TPSAB1 /// TPSB2 (11721975_s_at) / Fold change /veh TPSAB1 /// TPSB2 (11721975_s_at) / RFU GSTM3 (11746129_a_at) / Fold change /veh GSTM3 (11746129_a_at) / RFU IL23R (11737362_x_at) / Fold change /veh IL23R (11737362_x_at) / RFU TMEM51 (11727254_a_at) / Fold change /veh TMEM51 (11727254_a_at) / RFU PIWIL2 (11732686_x_at) / Fold change /veh PIWIL2 (11732686_x_at) / RFU ORM1 (11744905_x_at) / Fold change /veh ORM1 (11744905_x_at) / RFU CCDC152 (11743942_at) / Fold change /veh CCDC152 (11743942_at) / RFU ECM1 (11717891_a_at) / Fold change /veh ECM1 (11717891_a_at) / RFU IL23R (11748794_a_at) / Fold change /veh IL23R (11748794_a_at) / RFU TNFAIP8L3 (11732012_x_at) / Fold change /veh TNFAIP8L3 (11732012_x_at) / RFU MBOAT4 (11741988_at) / Fold change /veh MBOAT4 (11741988_at) / RFU 11764193_at / Fold change /veh 11764193_at / RFU TMEM53 (11763286_at) / Fold change /veh TMEM53 (11763286_at) / RFU MAGEB2 (11727129_at) / Fold change /veh MAGEB2 (11727129_at) / RFU TMEM200A (11744735_a_at) / Fold change /veh TMEM200A (11744735_a_at) / RFU CCDC152 (11751479_a_at) / Fold change /veh CCDC152 (11751479_a_at) / RFU FAM211A (11726209_a_at) / Fold change /veh FAM211A (11726209_a_at) / RFU RGS16 (11746705_a_at) / Fold change /veh RGS16 (11746705_a_at) / RFU VCAN (11755009_s_at) / Fold change /veh VCAN (11755009_s_at) / RFU RHOB (11743442_s_at) / Fold change /veh RHOB (11743442_s_at) / RFU RGS16 (11720943_a_at) / Fold change /veh RGS16 (11720943_a_at) / RFU RGS16 (11720944_at) / Fold change /veh RGS16 (11720944_at) / RFU, VPS4B / Fold change vs veh, VPS4B / RFU, CREB1 / Fold change vs veh, CREB1 / RFU, DNAJC13 / Fold change vs veh, DNAJC13 / RFU, GNAQ / Fold change vs veh, GNAQ / RFU, CDK5R1 / Fold change vs veh, CDK5R1 / RFU, ZRANB3 / Fold change vs veh, ZRANB3 / RFU, CUL4A / Fold change vs veh, CUL4A / RFU, CCNY / Fold change vs veh, CCNY / RFU, UFL1 / Fold change vs veh, UFL1 / RFU, COG3 / Fold change vs veh, COG3 / RFU, DIAPH2 / Fold change vs veh, DIAPH2 / RFU, SKA2 / Fold change vs veh, SKA2 / RFU, AFF3 / Fold change vs veh, AFF3 / RFU, LMF1 / Fold change vs veh, LMF1 / RFU, IPO11 / Fold change vs veh, IPO11 / RFU, DFFB / Fold change vs veh, DFFB / RFU, FOXP1 / Fold change vs veh, FOXP1 / RFU, CARD8 / Fold change vs veh, CARD8 / RFU, STRN3 / Fold change vs veh, STRN3 / RFU, ADK / Fold change vs veh, ADK / RFU, RASSF2 / Fold change vs veh, RASSF2 / RFU, WIPF1 / Fold change vs veh, WIPF1 / RFU, LARP1B / Fold change vs veh, LARP1B / RFU, RASA1 / Fold change vs veh, RASA1 / RFU, RB1 / Fold change vs veh, RB1 / RFU, PPFIA1 / Fold change vs veh, PPFIA1 / RFU, MAT2A / Fold change vs veh, MAT2A / RFU, CCT5 / Fold change vs veh, CCT5 / RFU, WDR92 / Fold change vs veh, WDR92 / RFU, CUX1 / Fold change vs veh, CUX1 / RFU, TTC7A / Fold change vs veh, TTC7A / RFU, TMEM135 / Fold change vs veh, TMEM135 / RFU, DEPTOR / Fold change vs veh, DEPTOR / RFU, CPM / Fold change vs veh, CPM / RFU, DNAJB6 / Fold change vs veh, DNAJB6 / RFU, CACNA2D3 / Fold change vs veh, CACNA2D3 / RFU, DTX4 / Fold change vs veh, DTX4 / RFU, TFCP2 / Fold change vs veh, TFCP2 / RFU, GMCL1 /// GMCL1P1 / Fold change vs veh, GMCL1 /// GMCL1P1 / RFU, AEBP2 / Fold change vs veh, AEBP2 / RFU, SNHG1 /// SNORD22 /// SNORD25 /// SNORD26 /// SNORD27 /// SNORD28 /// SNORD29 /// SNORD31 / Fold change vs veh, SNHG1 /// SNORD22 /// SNORD25 /// SNORD26 /// SNORD27 /// SNORD28 /// SNORD29 /// SNORD31 / Fold change (Aza/veh), C12orf56 (ProbeSet 11735607_a_at) / Fold change (ACY-1035/veh), C12orf56 (ProbeSet 11735607_a_at) / Fold change (Aza/veh), FGFR1OP (ProbeSet 11751329_s_at) / Fold change (ACY-1035/veh), FGFR1OP (ProbeSet 11751329_s_at) / Fold change (Aza/veh), VPS36 (ProbeSet 11739960_a_at) / Fold change (ACY-1035/veh), VPS36 (ProbeSet 11739960_a_at) / RFU SYPL1 (11715823_x_at) / Fold change /veh SYPL1 (11715823_x_at) / RFU IGFBP7 (11715501_s_at) / Fold change /veh IGFBP7 (11715501_s_at) / RFU REEP3 (11722064_at) / Fold change /veh REEP3 (11722064_at) / RFU IGLL1 (11728026_x_at) / Fold change /veh IGLL1 (11728026_x_at): dose or concentration left out as unconfirmed
# Conditions: ProbeSet 11757268_x_at; LIST B
structure (smiles),measurement,value
Nc1ncn([C@@H]2O[C@H](CO)[C@@H](O)[C@H]2O)c(=O)n1 [azacitidine],"Fold change vs veh, HNRNPA1",0.91
